Test results from PubChem BioAssay AID449764 (Southern Research Specialized Biocontainment Screening …, 2010).
pIC50: −log10 of the molar value.

Test system: Mycobacterium tuberculosis H37Rv growth inhibition, no glycerol
Test: Confirmatory growth inhibition assay, Mycobacterium tuberculosis H37Rv, absence of glycerol (AID 449764);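 further: growth read after 7 days of incubation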
Conditions: for IC90: measured here: IC90 growth inhibition

With COc1nc(-c2ccccc2)cc(-c2ccc(OC)c(OC)c2)n1 as the compound, how does the pIC50 read?
The pIC50 was 4.06.

And the IC90?
The IC90 was greater than 100 µM.

O=C(CN1CCC(n2nnc3cc(C(F)(F)F)ccc32)CC1)NCc1cccs1 was tested. Which pIC50 did it give?
Its pIC50 is 4.43.

And the IC90?
The IC90 was 47.9 µM.

Cc1cccc(CNc2ncnc3ccc(-c4ccc5c(c4)OCCO5)cc23)c1 was tested. Which pIC50 did it give?
The pIC50 was 4.99.

And the IC90?
The IC90 was 12.7 µM.

O=C(O)/C=C/C(=O)Nc1ccc(-c2ccccc2)cc1 was tested. Which pIC50 did it give?
The pIC50 was 4.03.

What about the IC90 of the same compound?
The IC90 was greater than 100 µM.

Which results are given for Nc1ccc(C(=O)OCCCc2nc3cc4ccccc4cc3[nH]2)cc1?
pIC50: 4.43; IC90: 59.3 µM

O=C(NCCN1CCN(c2cccc(Cl)c2)CC1)c1ccc(CSc2nc3ccncc3[nH]2)cc1 was tested. Which pIC50 did it give?
The pIC50 was 4.66.

And the IC90?
Its IC90 is 32.1 µM.

With CN(C)C/C=C/C(=O)Nc1cccc(-c2c[nH]c3ncnc(Oc4ccc(NC(=O)CC(=O)Nc5ccc(F)cc5)cc4F)c23)c1 as the compound, how does the pIC50 read?
The pIC50 was 4.91.

What about the IC90 of the same compound?
The IC90 was 14 µM.

Which results are given for O=[N+]([O-])c1ccc(Sc2cc[n+]([O-])c3ccccc23)c([N+](=O)[O-])c1?
pIC50: 4.39; IC90: 56.1 µM

With [O-][n+]1c2ccccc2c2n1CCN1CCOC21c1ccc(Cl)cc1 (configuration not stated) as the compound, how does the pIC50 read?
Its pIC50 is 4.29.

And the IC90?
The IC90 was 79.3 µM.

Which results are given for COc1ccc(C2=Nn3c(nnc3-c3ccccc3F)SC2)cc1OC1CCCC1?
pIC50: 4.71; IC90: 25.4 µM

Which results are given for CCOc1ccc(-n2cc(-c3ccccc3)c3c(=O)[nH]cnc32)cc1?
pIC50: 4.08; IC90: > 100 µM

Cc1cc(N/N=C/c2ccccc2[N+](=O)[O-])nc(-n2nc(C)cc2C)n1 was tested. Which pIC50 did it give?
Its pIC50 is 5.47.

What about the IC90 of the same compound?
The IC90 was 5.14 µM.

COc1ccc(N(CC(=O)Nc2cc(Cl)ccc2C)S(=O)(=O)c2c(C)n[nH]c2C)cc1 was tested. Which pIC50 did it give?
Its pIC50 is 4.39.

And the IC90?
The IC90 was 52.7 µM.

Fc1nc(F)c(F)c(NCCCNc2c(F)c(F)nc(F)c2F)c1F was tested. Which IC90 did it give?
The IC90 was greater than 100 µM.

With Cc1cc(C)c(CSc2ncc(-c3ccc([N+](=O)[O-])cc3)[nH]2)c(C)c1 as the compound, how does the pIC50 read?
Its pIC50 is 4.43.

What about the IC90 of the same compound?
Its IC90 is 53.4 µM.

With CC1CCN(c2nc(Cl)nc(Nc3ccc([N+](=O)[O-])cc3)n2)CC1 as the compound, how does the pIC50 read?
The pIC50 was 4.10.

And the IC90?
The IC90 was greater than 100 µM.

O=C(Nc1nc2ccc(F)cc2s1)C1CCN(S(=O)(=O)c2cc([N+](=O)[O-])ccc2Cl)CC1 was tested. Which pIC50 did it give?
Its pIC50 is 4.92.

What about the IC90 of the same compound?
The IC90 was 17.6 µM.

How did the pIC50 turn out when Cc1cc(Br)ccc1NC(=O)c1cnc(N2CCN(c3ccccn3)CC2)c2ccccc12 was run?
Its pIC50 is 5.63.

What about the IC90 of the same compound?
Its IC90 is 3.49 µM.

What does the source list for CCN(CC)c1ccc(/C=C2\SC(=O)N(C(C)C)C2=O)o1?
pIC50: 5.54; IC90: 4.69 µM

Which results are given for Cc1cc(/C=N\NC(=O)c2cccs2)c(C)n1-c1ccc2ncccc2c1?
pIC50: 4.43; IC90: 60.2 µM

With CCC(C)NC(=O)c1c(N)n(/N=C/c2ccccn2)c2nc3ccccc3nc12 (configuration not stated) as the compound, how does the pIC50 read?
The pIC50 was 4.86.

What about the IC90 of the same compound?
Its IC90 is 22.4 µM.

With CCOC(=O)N1CCN(Cc2cc(Cl)c3cccnc3c2O)CC1 as the compound, how does the pIC50 read?
Its pIC50 is 4.66.

What about the IC90 of the same compound?
Its IC90 is 24.7 µM.

CCCn1c(N2CCN(Cc3ccc(Cl)cc3)CC2)nc2ccccc21 was tested. Which pIC50 did it give?
Its pIC50 is 4.60.

What about the IC90 of the same compound?
The IC90 was 38 µM.

How did the pIC50 turn out when CCCOc1ccc2c(c1)C(=NN=C(N)N)c1cc(OCCC)ccc1-2 was run?
The pIC50 was 4.96.

And the IC90?
Its IC90 is 18.1 µM.

With COc1cc(NC(=O)c2cnc(N)s2)cc(C(=O)Nc2cccc(C(F)(F)F)c2)c1 as the compound, how does the pIC50 read?
The pIC50 was 4.07.

And the IC90?
Its IC90 is greater than 100 µM.

How did the pIC50 turn out when Cc1c2c(nc3ccccc13)CCC(C)C2 (configuration not stated) was run?
The pIC50 was 4.66.

And the IC90?
Its IC90 is 37.1 µM.

With Cc1cc(C)c(C)c(N=Nc2nc3ccccc3n2C)c1C as the compound, how does the pIC50 read?
The pIC50 was 4.95.

And the IC90?
Its IC90 is 12.6 µM.

Which results are given for CCCc1cc(-c2nc(N)ncc2-c2ccc3c(c2)OCCCO3)c(O)cc1OC?
pIC50: 4.27; IC90: 81 µM

How did the pIC50 turn out when O=[N+]([O-])c1cccnc1N1CCC(c2cc(-c3cccc(C(F)(F)F)c3)n[nH]2)CC1 was run?
The pIC50 was 4.67.

What about the IC90 of the same compound?
Its IC90 is 34.4 µM.

O=C(OCn1ncc(Br)c(Br)c1=O)c1ccc(F)cc1 was tested. Which pIC50 did it give?
The pIC50 was 5.54.

And the IC90?
Its IC90 is 4.77 µM.

With CCOc1ccc(-c2cc(C)[n+](CCc3ccc(OC)c(OC)c3)c(-c3ccc(OCC)cc3)c2)cc1 as the compound, how does the pIC50 read?
The pIC50 was 5.78.

What about the IC90 of the same compound?
The IC90 was 2.52 µM.

With COc1ccc(C2CC(=O)c3cnc(Nc4cc(C)cc(C)c4)nc3C2)cc1 (configuration not stated) as the compound, how does the pIC50 read?
The pIC50 was 4.69.

What about the IC90 of the same compound?
Its IC90 is 45.2 µM.

Which results are given for O=C(CSc1nc2ccccc2c(=O)[nH]1)NCc1ccc(Cl)cc1?
pIC50: 5.56; IC90: 3.22 µM

How did the pIC50 turn out when Brc1ccc2c(c1)C(OC1CN3CCC1CC3)c1ccccc1CS2 (configuration not stated) was run?
Its pIC50 is 4.58.

What about the IC90 of the same compound?
The IC90 was 36.4 µM.

How did the pIC50 turn out when CC(NC(=O)CCl)c1ccc(Cl)c(Cl)c1 (configuration not stated) was run?
Its pIC50 is 5.39.

And the IC90?
Its IC90 is 7.74 µM.

What does the source list for COc1ccc(C(=O)Cn2nc(CNc3ccc(Br)cc3)[n+]3c2CCCCC3)cc1?
pIC50: 4.91; IC90: 14.1 µM

How did the pIC50 turn out when O=C(/C=C/c1c(F)cccc1Cl)c1ccc(F)cc1 was run?
The pIC50 was 4.33.

What about the IC90 of the same compound?
The IC90 was 73 µM.

What does the source list for CCCC(=O)OCCNc1cc(SCCC(=O)OC)c2nonc2c1[N+](=O)[O-]?
pIC50: 5.23; IC90: 6.66 µM

What does the source list for Cc1cc(C(=O)CCl)c(C)n1-c1cccc([N+](=O)[O-])c1?
pIC50: 5.62; IC90: 6.49 µM

With O=C(Nc1nc2ccccc2[nH]1)C12CC3CC(CC(C3)C1)C2 as the compound, how does the pIC50 read?
Its pIC50 is 4.87.

What about the IC90 of the same compound?
The IC90 was greater than 100 µM.

NC(=O)c1cccc(-c2cc(Nc3ccc(OC(F)(F)F)cc3)ncn2)c1 was tested. Which pIC50 did it give?
The pIC50 was 4.61.

And the IC90?
Its IC90 is greater than 25 µM.

What does the source list for CCc1ccc2c(c1)C1(C(=O)N2)N2CCCC2C(C(=O)c2ccc3ccccc3c2)C12C(=O)Nc1ccccc12 (configuration not stated)?
pIC50: 4.62; IC90: 36.2 µM

COC(=O)c1c(NC(=O)CC2SC(N)=NC2=O)sc2c1CCC(C(C)(C)C)C2 (configuration not stated) was tested. Which pIC50 did it give?
The pIC50 was 4.40.

And the IC90?
The IC90 was 64.4 µM.

How did the pIC50 turn out when Cc1nn(CCc2nn[nH]n2)c2nc(-c3ccc(Br)cc3)cc(C(F)(F)F)c12 was run?
Its pIC50 is 5.08.

What about the IC90 of the same compound?
Its IC90 is 16.8 µM.

Which results are given for COc1cc(C(=O)/C=C/c2cccnc2)c([N+](=O)[O-])cc1OC?
pIC50: 4.76; IC90: 26.2 µM

With Cc1ccc(C(=O)/C=C/C(=O)c2ccc(C)cc2)cc1 as the compound, how does the pIC50 read?
The pIC50 was 5.36.

And the IC90?
The IC90 was 5.87 µM.

Which results are given for CC(C)(C)c1ccc(C(=O)CSc2n[nH]c(=O)[nH]c2=O)cc1?
pIC50: 4.78; IC90: 28.6 µM

COC(=O)c1c(NC(=S)NN2CCN(C)CC2)sc2c1CCC(C)C2 (configuration not stated) was tested. Which pIC50 did it give?
The pIC50 was 4.64.

And the IC90?
The IC90 was 26.6 µM.

How did the pIC50 turn out when N=c1oc2cc(O)ccc2cc1C(=O)Nc1ccc(Br)cc1 was run?
Its pIC50 is 5.76.

What about the IC90 of the same compound?
Its IC90 is 3.96 µM.

Which results are given for CCOC(=O)COc1cc([N+](=O)[O-])cc2cccnc12?
pIC50: 4.52; IC90: 46.4 µM

With Cc1ccc(NCCC(=O)c2ccc(Br)cc2)cc1 as the compound, how does the pIC50 read?
Its pIC50 is 4.58.

What about the IC90 of the same compound?
Its IC90 is 43.8 µM.

CC(NCCCOc1cccc2ccccc12)c1ccccc1 (configuration not stated) was tested. Which pIC50 did it give?
The pIC50 was 4.60.

And the IC90?
Its IC90 is 28 µM.

With O=c1[nH]c(=O)n(Cc2ccccc2)c2nc(-c3ccc(Oc4ccc(F)cc4)c([N+](=O)[O-])c3)n(CCO)c12 as the compound, how does the pIC50 read?
The pIC50 was 4.30.

And the IC90?
The IC90 was greater than 100 µM.

What does the source list for CC(C)Oc1ccc(-c2nc(NCC3CCCO3)c3ccccc3n2)cc1 (configuration not stated)?
pIC50: 4.21; IC90: 98.3 µM

How did the pIC50 turn out when CC(=O)c1ccc(NC(=O)c2cc(CC(C)C)on2)cc1 was run?
The pIC50 was 4.92.

And the IC90?
Its IC90 is 13.8 µM.

With O=[N+]([O-])c1cc(C=Nc2ccc3ccccc3c2)ccc1Br as the compound, how does the pIC50 read?
Its pIC50 is 4.46.

What about the IC90 of the same compound?
Its IC90 is 44.5 µM.

COc1ccc(C(=O)OCC(=O)c2ccc(Br)s2)c(OC)c1 was tested. Which pIC50 did it give?
Its pIC50 is 4.13.

What about the IC90 of the same compound?
Its IC90 is greater than 100 µM.

Which results are given for O=C(c1ccc([N+](=O)[O-])s1)N1CCN(c2ccc(C(F)(F)F)cn2)CC1?
pIC50: 4.86; IC90: 17.5 µM

With CC(C)NC(=S)N/N=C/c1cc(Br)ccc1O as the compound, how does the pIC50 read?
Its pIC50 is 4.53.

And the IC90?
Its IC90 is greater than 100 µM.

With Cc1c(CN2CCC(CO)(Cc3cccc(C(F)(F)F)c3)CC2)c2ccccc2n1C as the compound, how does the pIC50 read?
Its pIC50 is 4.51.

What about the IC90 of the same compound?
Its IC90 is 39.6 µM.

What does the source list for Cc1ccc2ccc3ccc(C)nc3c2n1?
pIC50: 5.85; IC90: 2.11 µM

CC(C(Sc1ccccc1N)c1ccccc1)[N+](=O)[O-] (configuration not stated) was tested. Which IC90 did it give?
The IC90 was greater than 100 µM.
